Data published in patent US20030022158A1, “Peptides from the TT virus sequence and monospecific antibodies binding to the TT virus” (priority 1999, published 2003).

Tests used:
[1] = tested on: human IgG antibodies in human serum samples; experiment: EIA of human antibody reactivities to overlapping synthetic peptides of TTV ORF1 and ORF2 (Tables 2 and 3); type: binding; details: for optical density (OD) at 405 nm: serum diluted 1:100, OD over 0.500 considered positive; for optical density (OD) at 405 nm, EIA reactivity of human serum sample 1: serum sample 1, negative for TTV DNA by PCR; for optical density (OD) at 405 nm, EIA reactivity of human serum sample 1 / optical density (OD) at 405 nm, EIA reactivity of human serum sample 2 / optical density (OD) at 405 nm, EIA reactivity of human serum sample 3 / optical density (OD) at 405 nm, EIA reactivity of human serum sample 4 / optical density (OD) at 405 nm, EIA reactivity of human serum sample 5 / optical density (OD) at 405 nm, EIA reactivity of human serum sample 6 / optical density (OD) at 405 nm, EIA reactivity of human serum sample 7 / optical density (OD) at 405 nm, EIA reactivity of human serum sample 9 / optical density (OD) at 405 nm, EIA reactivity of human serum sample 11 / optical density (OD) at 405 nm, EIA reactivity of human serum sample 18 / optical density (OD) at 405 nm, EIA reactivity of human serum sample 36 / optical density (OD) at 405 nm, EIA reactivity of human serum sample 48 / optical density (OD) at 405 nm, EIA reactivity of human serum sample 98 / optical density (OD) at 405 nm, EIA reactivity of human serum sample 110 / optical density (OD) at 405 nm, EIA reactivity of human serum sample 155 / optical density (OD) at 405 nm, EIA reactivity of human serum sample 157: serum 1:100, peptide coated 10 μg/ml, OD over 0.500 positive; for optical density (OD) at 405 nm, EIA reactivity of human serum sample 2: serum sample 2, negative for TTV DNA by PCR; for optical density (OD) at 405 nm, EIA reactivity of human serum sample 3: serum sample 3, negative for TTV DNA by PCR; for optical density (OD) at 405 nm, EIA reactivity of human serum sample 4: serum sample 4, negative for TTV DNA by PCR; for optical density (OD) at 405 nm, EIA reactivity of human serum sample 5: serum sample 5, negative for TTV DNA by PCR; for optical density (OD) at 405 nm, EIA reactivity of human serum sample 6: serum sample 6, negative for TTV DNA by PCR; for optical density (OD) at 405 nm, EIA reactivity of human serum sample 7: serum sample 7, negative for TTV DNA by PCR; for optical density (OD) at 405 nm, EIA reactivity of human serum sample 9: serum sample 9, positive for TTV DNA by PCR; for optical density (OD) at 405 nm, EIA reactivity of human serum sample 11: serum sample 11, negative for TTV DNA by PCR; for optical density (OD) at 405 nm, EIA reactivity of human serum sample 18: serum sample 18, positive for TTV DNA by PCR; for optical density (OD) at 405 nm, EIA reactivity of human serum sample 36: serum sample 36, positive for TTV DNA by PCR; for optical density (OD) at 405 nm, EIA reactivity of human serum sample 48: serum sample 48, positive for TTV DNA by PCR; for optical density (OD) at 405 nm, EIA reactivity of human serum sample 98: serum sample 98, positive for TTV DNA by PCR; for optical density (OD) at 405 nm, EIA reactivity of human serum sample 110: serum sample 110, positive for TTV DNA by PCR; for optical density (OD) at 405 nm, EIA reactivity of human serum sample 155: serum sample 155, positive for TTV DNA by PCR; for optical density (OD) at 405 nm, EIA reactivity of human serum sample 157: serum sample 157, positive for TTV DNA by PCR; for human reactivity to peptide (reactive peptides within ORF1): tested human sera
Description: Overlapping peptides (18 amino acids in length containing an 8 amino acid overlap) corresponding to regions of the ORFI and ORF2 of TTV (TABLE 1; Genebank accession no AB008394) were produced by a multiple peptide synthesizer (Syro, Syntex, Germany) using standard Fmoc chemistry (Sallberg et al., Immunology Letters, 30:59 68 (1991), herein expressly incorporated by reference in its entirety).
(§1) The EIAs used to identify which peptides interacted with human sera followed protocols known in the art. (See Zhang et al., J Gen Virol, 78:2735-2746 (1997), herein expressly incorporated by reference in its entirety). Briefly, microplates (Nunc, Denmark) were coated for 48 hours with synthetic peptides at a concentration of 10 μg/ml in 0.05M sodium carbonate buffer pH 9.6. After blocking for 2 hours at room temperature with phosphate buffered saline containing 1% bovine serum albumin, 2% goat serum and 0.05% Tween 20 (dilution buffer) the plates were incubated with human sera diluted 1:100 in dilution buffer. Bound human IgG was detected by incubation with anti-human IgG antibodies conjugated to alkaline phosphatase (Sigma Chemicals, St. Louis, Mo.). The plates were developed by the addition of […] (Sigma) and the optical densities were determined at 405 nm.

[2] = tested on: human antibodies in human serum samples; experiment: EIA reactivities of three human serum samples with deletion and alanine substitution analogues of SEQ ID NO: 1 (Table 6); type: binding; details: positive = more than 50% of the reactivity of the original peptide
Method: as §1
The reactivity to the TATTTTYAYPGTNRPPV (SEQ ID NO: 1) peptide was further characterized by mapping the reactivity of deletion and substitution peptide analogues.

[3] = human serum sample 1, negative for TTV DNA by PCR
[4] = human serum sample 2, negative for TTV DNA by PCR
[5] = human serum sample 3, negative for TTV DNA by PCR
[6] = human serum sample 4, negative for TTV DNA by PCR
[7] = human serum sample 5, negative for TTV DNA by PCR
[8] = human serum sample 6, negative for TTV DNA by PCR
[9] = human serum sample 7, negative for TTV DNA by PCR
[10] = human serum sample 9, positive for TTV DNA by PCR
[11] = human serum sample 11, negative for TTV DNA by PCR
[12] = human serum sample 18, positive for TTV DNA by PCR
[13] = human serum sample 36, positive for TTV DNA by PCR
[14] = human serum sample 48, positive for TTV DNA by PCR
[15] = human serum sample 98, positive for TTV DNA by PCR
[16] = human serum sample 110, positive for TTV DNA by PCR
[17] = human serum sample 155, positive for TTV DNA by PCR
[18] = human serum sample 157, positive for TTV DNA by PCR

Sequence	optical density (OD) at 405 nm [1, 3] [OD]	optical density (OD) at 405 nm [1, 4] [OD]	optical density (OD) at 405 nm [1, 5] [OD]	optical density (OD) at 405 nm [1, 6] [OD]	optical density (OD) at 405 nm [1, 7] [OD]	optical density (OD) at 405 nm [1, 8] [OD]	optical density (OD) at 405 nm [1, 9] [OD]	optical density (OD) at 405 nm [1, 10] [OD]	optical density (OD) at 405 nm [1, 11] [OD]	optical density (OD) at 405 nm [1, 12] [OD]	optical density (OD) at 405 nm [1, 13] [OD]	optical density (OD) at 405 nm [1, 14] [OD]	optical density (OD) at 405 nm [1, 15] [OD]	optical density (OD) at 405 nm [1, 16] [OD]	optical density (OD) at 405 nm [1, 17] [OD]	optical density (OD) at 405 nm [1, 18] [OD]	optical density (OD) at 405 nm, EIA reactivity of human serum sample 1 [1] [OD]	optical density (OD) at 405 nm, EIA reactivity of human serum sample 2 [1] [OD]	optical density (OD) at 405 nm, EIA reactivity of human serum sample 3 [1] [OD]	human reactivity to peptide (reactive peptides within ORF1) ([1]; EIA)	also measured
VLICGENTVSRNYATHS (Peptide Immunogen) [compound 10, overlapping synthetic peptide of TTV ORF1]	0.09	0.10	0.11	0.11	0.11	0.13	1.09	0.09	0.12	0.07	0.07	0.11	0.06	0.09	0.12	0.12	0.09	0.11	0.10	Reactive	optical density (OD) at 405 nm, EIA reactivity of human serum sample 4 [1]: 0.09 OD; optical density (OD) at 405 nm, EIA reactivity of human serum sample 5 [1]: 0.08 OD; optical density (OD) at 405 nm, EIA reactivity of human serum sample 6 [1]: 0.11 OD; optical density (OD) at 405 nm, EIA reactivity of human serum sample 7 [1]: 0.08 OD; optical density (OD) at 405 nm, EIA reactivity of human serum sample 9 [1]: 0.09 OD; optical density (OD) at 405 nm, EIA reactivity of human serum sample 11 [1]: 0.10 OD; optical density (OD) at 405 nm, EIA reactivity of human serum sample 18 [1]: 0.09 OD; optical density (OD) at 405 nm, EIA reactivity of human serum sample 36 [1]: 0.07 OD; optical density (OD) at 405 nm, EIA reactivity of human serum sample 48 [1]: 0.08 OD; optical density (OD) at 405 nm, EIA reactivity of human serum sample 98 [1]: 0.08 OD; optical density (OD) at 405 nm, EIA reactivity of human serum sample 110 [1]: 0.08 OD; optical density (OD) at 405 nm, EIA reactivity of human serum sample 155 [1]: 0.11 OD; optical density (OD) at 405 nm, EIA reactivity of human serum sample 157 [1]: 0.13 OD
PDEKSQREILLNKIASY (Peptide Immunogen) [compound 29, overlapping synthetic peptide of TTV ORF1]	0.42	0.36	0.45	0.53	0.22	0.95	0.29	0.21	0.14	0.11	0.09	0.10	0.09	0.25	0.59	0.62	–	–	–	Reactive	OD at 405 nm, reactivity of human serum sample P4 ([2]; human serum sample P4): 0.142 OD; OD at 405 nm, reactivity of human serum sample P7 ([2]; human serum sample P7): 0.105 OD; OD at 405 nm, reactivity of human serum sample P36 ([2]; human serum sample P36): 0.076 OD
QKESLLFPPVKLLRRVP (Peptide Immunogen) [compound 69, overlapping synthetic peptide of TTV ORF1]	0.10	0.15	0.16	0.14	0.12	0.51	0.11	0.09	0.13	0.08	0.08	0.09	0.10	0.11	0.15	0.21	–	–	–	Reactive	–
EDGGAGGDADHGGAAGGP (Peptide Immunogen) [ORF2 peptide 19, overlapping synthetic peptide of TTV ORF2]	–	–	–	–	–	–	–	–	–	–	–	–	–	–	–	–	–	–	–	–	number of tested human sera reactive with the peptide ([1]; ORF2 peptide, EIA): Two of the tested human sera were reactive
KINTMPPFLDTELTAPS (Peptide Immunogen) [compound 18, overlapping synthetic peptide of TTV ORF1]	0.09	0.09	0.15	0.29	0.07	0.13	0.62	0.08	0.28	0.07	0.13	0.12	0.04	0.08	0.19	0.18	0.00	0.00	0.00	Reactive	optical density (OD) at 405 nm, EIA reactivity of human serum sample 4 [1]: 0.00 OD; optical density (OD) at 405 nm, EIA reactivity of human serum sample 5 [1]: 0.00 OD; optical density (OD) at 405 nm, EIA reactivity of human serum sample 6 [1]: 0.00 OD; optical density (OD) at 405 nm, EIA reactivity of human serum sample 7 [1]: 0.00 OD; optical density (OD) at 405 nm, EIA reactivity of human serum sample 9 [1]: 0.00 OD; optical density (OD) at 405 nm, EIA reactivity of human serum sample 11 [1]: 0.00 OD; optical density (OD) at 405 nm, EIA reactivity of human serum sample 18 [1]: 0.00 OD; optical density (OD) at 405 nm, EIA reactivity of human serum sample 36 [1]: 0.00 OD; optical density (OD) at 405 nm, EIA reactivity of human serum sample 48 [1]: 0.00 OD; optical density (OD) at 405 nm, EIA reactivity of human serum sample 98 [1]: 0.00 OD; optical density (OD) at 405 nm, EIA reactivity of human serum sample 110 [1]: 0.00 OD; optical density (OD) at 405 nm, EIA reactivity of human serum sample 155 [1]: 0.00 OD; optical density (OD) at 405 nm, EIA reactivity of human serum sample 157 [1]: 0.00 OD
